Results: publication PMC7721686, “Isolation, Characterization and Structure Elucidation of a Novel Lantibiotic From Paenibacillus sp” (Frontiers in Microbiology, 2020)
In brackets after ≈: the same amount, converted by molar mass. Like-named read-outs stand apart in the source and are kept apart here. Positions of bridges follow the written chain, without caps; N, C: chain ends. Non-standard residues stand in square brackets, D forms with d. Residues, ends and D or L forms follow the SMILES beside them. *: point of attachment. X1 = CC[C@H](C)CCCCC(=O)*; Dab = NCC[C@H](N)C(=O)O

Legend:
[1] = system: Multi-drug resistant A. baumannii CH-46; conditions: Multi-drug resistant A. baumannii CH-46 (CH46 in Table S1, drug resistance Y); broth microplate dilution
[2] = system: Acinetobacter baumannii CH36
[3] = system: Acinetobacter calcoaceticus CH37
[4] = system: Acinetobacter baumannii CH38
[5] = system: Acinetobacter baumannii CH39
[6] = system: Acinetobacter baumannii CH40
[7] = system: Acinetobacter ursingii CH41; conditions: CH41, A. ursingii, drug resistance N
[8] = system: Acinetobacter guillouiae CH42
[9] = system: Acinetobacter modestus CH43
[10] = system: Acinetobacter septicus CH44; conditions: CH44, A. septicus, drug resistance N
[11] = system: Acinetobacter baumannii CH45
[12] = system: Acinetobacter baumannii CH47
[13] = system: Acinetobacter baumannii CH48
[14] = system: Acinetobacter baumannii CH49
[15] = system: Acinetobacter baumannii CH50
[16] = system: Acinetobacter baumannii CH51
[17] = system: Acinetobacter baumannii CH52
[18] = system: Acinetobacter baumannii CH53
[19] = system: Acinetobacter baumannii CH54
[20] = system: Acinetobacter baumannii CH55
[21] = system: Multi-drug resistant A. baumannii CH-46; assay: microbe, parasite or virus in culture; conditions: Acinetobacter baumannii
[22] = system: Acinetobacter baumannii CH36; assay: microbe, parasite or virus in culture
[23] = system: Acinetobacter calcoaceticus CH37; assay: microbe, parasite or virus in culture
[24] = system: Acinetobacter baumannii CH38; assay: microbe, parasite or virus in culture
[25] = system: Acinetobacter baumannii CH39; assay: microbe, parasite or virus in culture
[26] = system: Acinetobacter baumannii CH40; assay: microbe, parasite or virus in culture
[27] = system: Acinetobacter ursingii CH41; assay: microbe, parasite or virus in culture
[28] = system: Acinetobacter guillouiae CH42; assay: microbe, parasite or virus in culture
[29] = system: Acinetobacter modestus CH43; assay: microbe, parasite or virus in culture
[30] = system: Acinetobacter septicus CH44; assay: microbe, parasite or virus in culture
[31] = system: Acinetobacter baumannii CH45; assay: microbe, parasite or virus in culture
[32] = system: Acinetobacter baumannii CH47; assay: microbe, parasite or virus in culture
[33] = system: Acinetobacter baumannii CH48; assay: microbe, parasite or virus in culture
[34] = system: Acinetobacter baumannii CH49; assay: microbe, parasite or virus in culture
[35] = system: Acinetobacter baumannii CH50; assay: microbe, parasite or virus in culture
[36] = system: Acinetobacter baumannii CH51; assay: microbe, parasite or virus in culture
[37] = system: Acinetobacter baumannii CH52; assay: microbe, parasite or virus in culture
[38] = system: Acinetobacter baumannii CH53; assay: microbe, parasite or virus in culture
[39] = system: Acinetobacter baumannii CH54; assay: microbe, parasite or virus in culture
[40] = system: Acinetobacter baumannii CH55; assay: microbe, parasite or virus in culture
S. aureus (ATCC 29213) = type: cell-based, Staphylococcus aureus; conditions: overnight 37°C
MDR S. aureus (CH-11) = type: cell-based, Staphylococcus aureus
[41] = system: S. aureus ATCC 29213 (SA) biofilm; assay: Anti-biofilm activity, pre-formed biofilm; type: cell-based, Staphylococcus aureus; conditions: only at the highest concentration 100 μg/mL, 4 h, PrestoBlue
S. aureus ATCC 29213 = assay: Inhibition of bacterial adhesion, pre-coated polystyrene plates; type: cell-based, Staphylococcus aureus; conditions: wells pre-treated at 10 μg/mL, washed; bacteria incubated 1 to 24 h at 37°C, PrestoBlue

CC[C@H](C)CCCCC(=O)N[C@@H](CCN)C(=O)N[C@H](C(=O)N[C@@H](CCN)C(=O)N[C@H]1CCNC(=O)[C@H]([C@@H](C)O)NC(=O)[C@H](CCN)NC(=O)[C@H](CCN)NC(=O)[C@H](CC(C)C)NC(=O)[C@@H](CC(C)C)NC(=O)[C@H](CCN)NC1=O)[C@@H](C)O [Colistin] (X1-[Dab]T[Dab][Dab][Dab][dL]L[Dab][Dab]T; lactam 4-C (inferred); N-terminus assumed)
MIC [1]: 3.91 µg/mL (≈ 3.34 µM)
MIC [2]: 3.91 µg/mL (≈ 3.34 µM)
MIC [3]: 3.91 µg/mL (≈ 3.34 µM)
MIC [4]: 3.91 µg/mL (≈ 3.34 µM)
MIC [5]: 3.91 µg/mL (≈ 3.34 µM)
MIC [6]: 5.86 µg/mL (≈ 5.01 µM)
MIC [7]: 1.95 µg/mL (≈ 1.67 µM)
MIC [8]: 3.91 µg/mL (≈ 3.34 µM)
MIC [9]: 7.81 µg/mL (≈ 6.68 µM)
MIC [10]: 1.95 µg/mL (≈ 1.67 µM)
MIC [11]: 3.91 µg/mL (≈ 3.34 µM)
MIC [12]: 3.91 µg/mL (≈ 3.34 µM)
MIC [13]: 3.91 µg/mL (≈ 3.34 µM)
MIC [14]: 3.91 µg/mL (≈ 3.34 µM)
MIC [15]: 5.86 µg/mL (≈ 5.01 µM)
MIC [16]: 3.91 µg/mL (≈ 3.34 µM)
MIC [17]: 3.91 µg/mL (≈ 3.34 µM)
MIC [18]: 3.91 µg/mL (≈ 3.34 µM)
MIC [19]: 5.86 µg/mL (≈ 5.01 µM)
MIC [20]: 7.81 µg/mL (≈ 6.68 µM)

C[C@@H](O)[C@H]1C(=O)N2C(C(=O)O)=C(SCCN=CN)C[C@H]12 [Imipenem]
MIC [21]: 250 µg/mL (≈ 835 µM)
MIC [22]: 250 µg/mL (≈ 835 µM)
MIC [23]: 0.5 µg/mL (≈ 1.67 µM)
MIC [24]: 125 µg/mL (≈ 418 µM)
MIC [25]: 15.6 µg/mL (≈ 52.2 µM)
MIC [26]: 31.2 µg/mL (≈ 104 µM)
MIC [27]: 1 µg/mL (≈ 3.34 µM)
MIC [28]: 7.81 µg/mL (≈ 26.1 µM)
MIC [29]: 0.5 µg/mL (≈ 1.67 µM)
MIC [30]: 1.46 µg/mL (≈ 4.88 µM)
MIC [31]: 125 µg/mL (≈ 418 µM)
MIC [32]: 3.91 µg/mL (≈ 13.1 µM)
MIC [33]: 7.81 µg/mL (≈ 26.1 µM)
MIC [34]: 62.5 µg/mL (≈ 209 µM)
MIC [35]: 62.5 µg/mL (≈ 209 µM)
MIC [36]: 31.2 µg/mL (≈ 104 µM)
MIC [37]: 31.2 µg/mL (≈ 104 µM)
MIC [38]: 31.2 µg/mL (≈ 104 µM)
MIC [39]: 7.81 µg/mL (≈ 26.1 µM)
MIC [40]: 46.9 µg/mL (≈ 157 µM)

COc1cccc(OC)c1C(=O)N[C@@H]1C(=O)N2[C@@H]1SC(C)(C)[C@@H]2C(=O)O [Methicillin]
Frequency of Resistance to antibiotics (S. aureus (ATCC 29213); 2X MIC in Mueller-Hinton agar, resistant colonies / CFU of inoculum): < 3.72 × 10^–10
Frequency of Resistance to antibiotics (S. aureus (ATCC 29213); 3X MIC in Mueller-Hinton agar): < 3.72 × 10^–10
Frequency of Resistance to antibiotics (S. aureus (ATCC 29213); 4X MIC in Mueller-Hinton agar): < 3.72 × 10^–10
Frequency of Resistance to antibiotics (S. aureus (ATCC 29213); 5X MIC in Mueller-Hinton agar): < 3.72 × 10^–10
Frequency of Resistance to antibiotics (S. aureus (ATCC 29213); 10X MIC in Mueller-Hinton agar): < 3.72 × 10^–10
Frequency of Resistance to antibiotics (MDR S. aureus (CH-11)): resistant

CN[C@H](CC(C)C)C(=O)N[C@H]1C(=O)N[C@@H](CC(N)=O)C(=O)N[C@H]2C(=O)N[C@H]3C(=O)N[C@H](C(=O)N[C@H](C(=O)O)c4cc(O)cc(O)c4-c4cc3ccc4O)[C@H](O)c3ccc(c(Cl)c3)Oc3cc2cc(c3O[C@@H]2O[C@H](CO)[C@@H](O)[C@H](O)[C@H]2O[C@H]2C[C@](C)(N)[C@H](O)[C@H](C)O2)Oc2ccc(cc2Cl)[C@H]1O [vancomycin]
Effect on viability of pre-formed biofilm [41]: partially effective

B1: platelet factor 4: control cationic peptide (protein, UniProt P02776 32-101, looked up)
Platelet factor 4: EAEEDGDLQCLCVKTTSQVRPRHITSLEVIKAGPHCPTAQLIATLKNGRKICLDLQAPLYKKIIKKLLES
Inhibition of cell adhesion / biofilm formation on pre-treated polystyrene wells (S. aureus ATCC 29213): no effect on biofilm formation
